Data on five molecules can be found in patent publication EP0123217A1, “1-(4-(4-(Fluoralkylmethylthio or sulfinyl or sulfinyl-)phenoxy)phenyl)-1,3,5-triazine-2,4,6(1H-3H,5H)triones, process for their preparation and their use as agents against coccidiosis” (BAYER AG, priority 1983, dated 1984).

The subject of one assay is E. falciformis. As to the kind of experiment: Coccidiosis in mice, minimum effective dose (oocyst excretion, clinical symptoms, mortality). Type of assay: in vivo, Eimeria falciformis. The note with it: for minimal effective dose: Eimeria falciformis, mice (15 g), infected with 10,000 sporulated oocysts, treated on days 1, 2, 3, 6, 7 and 8 after infection, read-out: wirksame Mindestdosierung E. falciformis. The source says: Die coccidiostatische Aktivität von Verbindungen, die für die Verbindungen gemäß der Erfindung repräsentativ sind, wird in Tabelle 1 veranschaulicht, wo Eimeria tenella (Blinddarm-Coccidiose/Hühner), Eimeria acervulina und Eimeria maxima (Dünndarm-Coccidiose von Hühnern) als Beispiele der Aktivität im Falle der Coddidiose bei Geflügel genannt sind, während Eimeria falciformus (Coccidiose/Mäuse) als Coccidium bei Säugetieren angegeben ist.
Die Behandlung der Infektion mit Eimeria falciformis bei Mäusen, die als Beispiel der Coccidiose bei Säugetieren erwähnt ist, fand am ersten, zweiten, dritten, sechsten, siebten und achten Tag nach der Infektion statt. Die Infektion erfolgte mit.10,000 sporulierten Oozysten pro Maus (Gewicht 15 g). Im Falle der unbehandelten Vergleichstiere fanden massive Ausscheidung von Oozysten, blutiger Durchfall und 30 % Sterblichkeit der Tiere, die der Infektion zuzuschreiben waren, vom siebten Tage nach der Infektion an statt.
Als wirksam wurden diejenigen Dosen angesehen, die die Ausscheidung von Oozysten und/oder klinische Symptome der Coccidiose einschließlich der Mortalität vollständig oder in hohem Maße verhüteten.

The test system of another assay is E. acervulina. Put plainly: Coccidiosis in chicks, minimum effective dose (oocyst excretion, clinical symptoms, mortality). Type of assay: in vivo, Eimeria acervulina.
The next assay concerns E. maxima. Described as above. It counts as in vivo, Eimeria maxima.
Another assay concerns E. tenella. The assay is described as above. Type of assay: in vivo, Eimeria tenella.
Where [1] appears, read: chicks 9 to 11 days old, infected with 4000 sporulated oocysts, compound given from 3 days before to 8 days after infection.

Counter-ions that a name gives are not always drawn.

Turning to `CCCc1ncc(C[n+]2ccccc2C)c(N)n1` [A, 1[(4-Amino-2-propyl-5-pyrimidinyl)-methyl]-2-picoliniumchloridhydrochlorid, reference compound], the minimal effective dose in the assay on E. falciformis is 500 mg/kg. Also, the “wirksame Mindestdosierung E. acervulina” value in the assay on E. acervulina (setting [1]) turned out to be 125 ppm. Further, in the assay with E. maxima (setting [1]), the “wirksame Mindestdosierung E. maxima” value is 125 ppm. Further, the “wirksame Mindestdosierung E. tenella” value with E. tenella (setting [1]) worked out at 125 ppm.
Regarding `CCC1(C2OC(C3OC(O)(CO)C(C)CC3C)CC2C)CCC(C2(C)CCC3(CC(O)C(C)C(C(C)C(OC)C(C)C(=O)O)O3)O2)O1` (centres unmarked) [M, reference compound], in the assay with E. falciformis (in vivo), the “wirksame Mindestdosierung E. falciformis” value turned out to be 250 mg/kg. In addition, in the assay on E. acervulina (in vivo), the “wirksame Mindestdosierung E. acervulina” value is given as 50 ppm. For the same molecule, the “wirksame Mindestdosierung E. maxima” value in the assay with E. maxima (in vivo) is on record as 50 ppm. For the same molecule, in the assay with E. tenella (in vivo), the “wirksame Mindestdosierung E. tenella” value is 75 ppm.
On to `Cn1c(=O)[nH]c(=O)n(-c2cc(Cl)c(Oc3ccc(SCC(F)(F)F)cc3)c(Cl)c2)c1=O` [[drawing] r3], for which the minimal effective dose with E. falciformis turned out to be 1 mg/kg. Further, the “wirksame Mindestdosierung E. acervulina” value with E. acervulina (setting [1]) worked out at 25 ppm. Besides, the “wirksame Mindestdosierung E. maxima” value with E. maxima (setting [1]) turned out to be 25 ppm. For the same molecule, in the assay on E. tenella (setting [1]), the “wirksame Mindestdosierung E. tenella” value is listed as 50 ppm.
As to `COc1cc(-n2c(=O)[nH]c(=O)n(C)c2=O)ccc1Oc1ccc(SCC(F)(F)F)cc1` [[drawing] r4], the minimal effective dose in the assay with E. falciformis turned out to be 25 mg/kg. Further, in the assay with E. acervulina (setting [1]), the “wirksame Mindestdosierung E. acervulina” value was 50 ppm. Further, the “wirksame Mindestdosierung E. maxima” value in the assay on E. maxima (setting [1]) is reported as 50 ppm. For the same molecule, in the assay on E. tenella (setting [1]), the “wirksame Mindestdosierung E. tenella” value stood at 50 ppm.
In the case of `Cn1c(=O)[nH]c(=O)n(-c2cc(Cl)c(Oc3ccc(S(=O)(=O)CC(F)(F)F)cc3)c(Cl)c2)c1=O` [[drawing] r5], the minimal effective dose in the assay on E. falciformis turned out to be 100 mg/kg. Further, the “wirksame Mindestdosierung E. acervulina” value in the assay on E. acervulina (setting [1]) is given as 10 ppm. Moreover, the “wirksame Mindestdosierung E. maxima” value with E. maxima (setting [1]) worked out at 10 ppm. In the assay on E. tenella (setting [1]), the “wirksame Mindestdosierung E. tenella” value turned out to be 10 ppm.
